Assays:
Assay type in all cases: in vivo
[1] = test system: adult cat fleas (Ctenocephalides felis); test: Ctenocephalides felis in-vitro contact test, adult cat flea; settings: 5 μg/cm^2 (=500 g/ha), after 48 hours
Protocol: Ctenocephalides felis—In-Vitro Contact Tests Adult Cat Flea
(§1) 9 mg compound is solved in 1 mL acetone and diluted with acetone to the desired concentration. 250 μL of the test solution is filled in 25 mL glass test tubes and homogeneously distributed on the inner walls by rotation and tilting on a shaking device (2 h at 30 rpm). With a compound concentration of 900 ppm, an inner surface of 44.7 cm^2 and a homogeneous distribution, a dose of 5 μg/cm^2 is achieved.
(§2) After the solvent has evaporated, each test tube is filled with 5-10 adult cat fleas (Ctenocephalides felis), closed with a perforated lid and incubated in a lying position at room temperature and relative humidity. After 48 hours efficacy is determined. The fleas are patted on the ground of the tubes and are incubated on a heating plate at 45-50° C. for at most 5 minutes. Immotile or uncoordinated moving fleas, which are not able to escape the heat by climbing upwards, are marked as dead or moribund.
An efficacy of 100% means all fleas are dead or moribund; 0% means no fleas are dead or moribund.

[2] = test system: fall armyworm larvae (Spodoptera frugiperda); test: whole plant or invertebrate; settings: 168 h
Summary of the method: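 Percent kill of Spodoptera frugiperda caterpillars, read 7 days after infestation of dried, spray-treated Zea mays leaf pieces. Spray preparation: compound in acetone plus dimethylformamide, diluted with emulsifier-containing water.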

[3] = test system: cattle tick larvae (Rhipicephalus microplus), strain Parkhurst, resistant against synthetic pyrethroids; test: Rhipicephalus (Boophilus) microplus in-vitro contact test, larval cattle tick; settings: 5 μg/cm^2 (=500 g/ha), after 48 hours
Protocol: Rhipicephalus (Boophilus) Microplus—In-Vitro Contact Tests Larval Cattle Tick (Strain Parkhurst, Resistant Against Synthetic Pyrethroids)
as §1
After the solvent has evaporated, each test tube is filled with 20-50 cattle tick larvae (Rhipicephalus microplus), closed with a perforated lid and incubated in a horizontal position at 85% relative humidity and 27° C. in an incubator. After 48 hours efficacy is determined. The larvae are patted on the ground of the tubes and negative geotactic behavior is recorded.
An efficacy of 100% means all larvae are dead or moribund; 0% means no larvae are dead or moribund.

[4] = test system: brown planthopper (Nilaparvata lugens); test: Nilaparvata lugens spray test; settings: 96 h
Summary of the method: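 Rice plants (Oryza sativa) sprayed with compound formulated in acetone/DMF with alkylarylpolyglycol ether emulsifier (1000 ppm in diluting water), then infested with planthoppers. Mortality (%) scored after 4 days; 100% = all insects killed, 0% = none killed.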

[5] = test system: adult brown dog ticks (Rhipicephalus sanguineus); test: Rhipicephalus sanguineus in-vitro contact test, adult brown dog ticks; settings: 48 h, read-out: efficacy (ticks dead or moribund)
Protocol: Rhipicephalus sanguineus—In-Vitro Contact Tests with Adult Brown Dog Ticks
as §1
as §2, with “brown dog ticks (Rhipicephalus sanguineus),” for “cat fleas (Ctenocephalides felis),”, “ticks” for “fleas”, “ticks,” for “fleas,”
An efficacy of 100% means all ticks are dead or moribund; 0% means no ticks are dead or moribund.

[6] = test system: green peach aphid (Myzus persicae); test: Myzus persicae spray test (MYZUPE); settings: 120 h, 100 g/ha, after 5 days
Summary of the method: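 Percent aphid kill, with 0% meaning none killed, was read 5 days after spraying. The preparation (acetone–DMF solvent, water with 1000 ppm emulsifier) was applied to Brassica pekinensis leaf disks carrying mixed-instar green peach aphids.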

[7] = test system: larvae of the southern green stink bug (Nezara viridula); test: whole plant or invertebrate; settings: 96 h
Summary of the method: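 Percent mortality of southern green stink bug larvae was recorded at day 4, with 100% meaning all dead. The larvae were placed on barley sprayed with the test solution. That solution was prepared from acetone/dimethylformamide concentrate diluted in emulsifier-containing water (1000 ppm).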

[8] = test system: larvae of the banded cucumber beetle (Diabrotica balteata); test: Diabrotica balteata spray test; settings: 168 h, 100 g/ha (=32 μg/well), after 7 days, read-out: efficacy (seedling growth)
Summary of the method: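 Efficacy is seedling survival after 7 days, where 0% means no seedlings grew and 100% means growth equal to untreated, uninfested controls. Wheat seedlings, germinated on agar for 1 day, were sprayed with the aqueous emulsifier dilution (acetone/DMF solvent) and then exposed to 10–20 banded cucumber beetle larvae.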

[9] = test system: adult flies Musca domestica strain WHO-N; test: Musca domestica test (MUSCDO surface treatment & contact assay); settings: 24 hours after contact, read-out: efficacy (mortality)
Protocol: Musca domestica Test (MUSCDO Surface Treatment & Contact Assay)
(§3) Solvent: Aceton+2000 ppm rapeseed oil methyl ester (RME)
(§4) This solution is pipetted onto a glazed tile and after evaporation of the acetone, adult flies of the species Musca domestica strain WHO-N are placed onto the dried surface. The exposure time is 30 minutes. Mortality in percent (%) is determined 24 hours after contact of the insects to the treated surface. 100% mortality means that all tested insects are dead, whereas 0% means that no insect died.

[10] = test system: adult mosquitoes Aedes aegypti strain MONHEIM; test: Aedes aegypti test (AEDSAE surface treatment & contact assay); settings: 24 hours after contact, read-out: efficacy (mortality); for mortality at 20 mg/m2: surface concentration 20 mg/m^2, 30 min exposure
Protocol: Aedes aegypti Test (AEDSAE Surface Treatment & Contact Assay)
as §3
as §4, with “mosquitoes” for “flies”, “Aedes aegypti” for “Musca domestica”, “MONHEIM” for “WHO-N”

[11] = surface concentration 4 mg/m^2, 30 min exposure

## CC(C)N(C)C(=O)c1cc(-n2ncnc2[C@H](C)NC(=O)c2cc(OC(F)(F)F)cc(C3CC3)c2)ncn1 [I-57]
[1]
  efficacy (fleas dead or moribund): 100%
[2]
  mortality at 100 g/ha: 100%
[3]
  efficacy (larvae dead or moribund): 100%
[4]
  mortality at 500 g/ha: 100%
[5]
  pest or weed control at 5 µg/cm2, 500 g/ha: 100%

## C[C@H](NC(=O)c1cc(OC(F)F)cc(OC(F)(F)F)c1)c1ncnn1-c1cc(C(N)=O)ncn1 [I-141]
[6]
  mortality at 100 g/ha: 90%
[1]
  efficacy (fleas dead or moribund): 100%
[7]
  mortality at 500 g/ha: 100%
[2]
  mortality at 100 g/ha: 100%
[8]
  pest or weed control at 32 µg/disc, 100 g/ha: 100%
[3]
  efficacy (larvae dead or moribund): 100%
[4]
  mortality at 500 g/ha: 100%
[5]
  pest or weed control at 5 µg/cm2, 500 g/ha: 100%

## C[C@H](NC(=O)c1cc(C#N)cc(OC(F)(F)F)c1)c1nc(C2CC2)nn1-c1cc(C(N)=O)ncn1 [I-39]
[9]; [11]
  mortality at 4 mg/m2: 80 to 100%
[9]; surface concentration 20 mg/m^2, 30 min exposure
  mortality at 20 mg/m2: 80 to 100%
[2]
  mortality at 100 g/ha: 100%
[8]
  pest or weed control at 32 µg/disc, 100 g/ha: 100%
[4]
  mortality at 500 g/ha: 100%

## C[C@H](NC(=O)c1cc(F)cc(OC(F)(F)F)c1)c1ncnn1-c1cc(C(N)=O)ncn1 [I-80]
[6]
  mortality at 100 g/ha: 100%
[1]
  efficacy (fleas dead or moribund): 100%
[7]
  mortality at 500 g/ha: 100%
[2]
  mortality at 100 g/ha: 100%
[8]
  pest or weed control at 32 µg/disc, 100 g/ha: 100%
[3]
  efficacy (larvae dead or moribund): 100%
[4]
  mortality at 500 g/ha: 100%
[5]
  pest or weed control at 5 µg/cm2, 500 g/ha: 100%

## C[C@H](NC(=O)c1cc(Br)cc(Br)c1)c1ncnn1-c1cc(C(N)=O)ncn1 [I-34, 6-[5-[(1S)-1-[(3,5-dibromobenzoyl)amino]ethyl]-1,2,4-triazol-1-yl]pyrimidine-4-carboxamide]
[6]
  mortality at 100 g/ha: 90%
[1]
  efficacy (fleas dead or moribund): 100%
[7]
  mortality at 100 g/ha: 100%
  mortality at 500 g/ha: 100%
[10]; [11]
  mortality at 4 mg/m2: 80 to 100%
[10]
  mortality at 20 mg/m2: 80 to 100%
[2]
  mortality at 100 g/ha: 100%
[8]
  pest or weed control at 32 µg/disc, 100 g/ha: 100%
[3]
  efficacy (larvae dead or moribund): 100%
[5]
  pest or weed control at 5 µg/cm2, 500 g/ha: 100%

## CNC(=O)c1cc(-n2ncnc2[C@H](C)NC(=O)c2cc(OC(F)F)cc(C3CC3)c2)ncn1 [I-67]
[6]
  mortality at 100 g/ha: 90%
[1]
  efficacy (fleas dead or moribund): 100%
[7]
  mortality at 500 g/ha: 100%
[2]
  mortality at 100 g/ha: 100%
[8]
  pest or weed control at 32 µg/disc, 100 g/ha: 100%
[3]
  efficacy (larvae dead or moribund): 100%
[4]
  mortality at 500 g/ha: 100%
[5]
  pest or weed control at 5 µg/cm2, 500 g/ha: 100%

## Cc1nc([C@H](C)NC(=O)c2cc(C(F)(F)F)cc(C(F)(F)F)c2)n(-c2cc(C#N)ncn2)n1 [I-5]
[6]
  mortality at 100 g/ha: 90%
[1]
  efficacy (fleas dead or moribund): 90%
[10]
  mortality at 20 mg/m2: 80 to 100%
[2]
  mortality at 100 g/ha: 100%
[8]
  pest or weed control at 32 µg/disc, 100 g/ha: 100%
[3]
  efficacy (larvae dead or moribund): 100%
[5]
  pest or weed control at 5 µg/cm2, 500 g/ha: 100%

## C[C@H](NC(=O)c1cc(Br)cc(OC(F)F)c1)c1ncnn1-c1cc(C#N)ncn1 [I-3]
[6]
  mortality at 100 g/ha: 90%
[1]
  efficacy (fleas dead or moribund): 100%
[7]
  mortality at 100 g/ha: 90%
  mortality at 500 g/ha: 90%
[10]
  mortality at 20 mg/m2: 80 to 100%
[2]
  mortality at 100 g/ha: 100%
[8]
  pest or weed control at 32 µg/disc, 100 g/ha: 100%
[3]
  efficacy (larvae dead or moribund): 100%
[5]
  pest or weed control at 5 µg/cm2, 500 g/ha: 100%

## CCN(C)C(=O)c1cc(-n2nc(C)nc2[C@H](C)NC(=O)c2cc(C(F)(F)F)cc(C(F)(F)F)c2)ncn1 [I-63]
[1]
  efficacy (fleas dead or moribund): 100%
[2]
  mortality at 100 g/ha: 100%
[8]
  pest or weed control at 32 µg/disc, 100 g/ha: 100%
[3]
  efficacy (larvae dead or moribund): 100%
[4]
  mortality at 500 g/ha: 100%
[5]
  pest or weed control at 5 µg/cm2, 500 g/ha: 100%

## C[C@H](NC(=O)c1cc(C(F)(F)F)cc(C(F)(F)F)c1)c1ncnn1-c1cc(C(=O)N(C)CC2CC2)ncn1 [I-76]
[1]
  efficacy (fleas dead or moribund): 100%
[7]
  mortality at 500 g/ha: 100%
[2]
  mortality at 100 g/ha: 100%
[8]
  pest or weed control at 32 µg/disc, 100 g/ha: 100%
[3]
  efficacy (larvae dead or moribund): 100%
[4]
  mortality at 500 g/ha: 100%
[5]
  pest or weed control at 5 µg/cm2, 500 g/ha: 100%

## Cc1nc([C@H](C)NC(=O)c2cc(C(F)(F)F)cc(C(F)(F)F)c2)n(-c2cc(C(=O)N(C)CC3CC3)ncn2)n1 [I-75]
[1]
  efficacy (fleas dead or moribund): 100%
[7]
  mortality at 500 g/ha: 100%
[2]
  mortality at 100 g/ha: 100%
[8]
  pest or weed control at 32 µg/disc, 100 g/ha: 100%
[3]
  efficacy (larvae dead or moribund): 100%
[4]
  mortality at 500 g/ha: 100%
[5]
  pest or weed control at 5 µg/cm2, 500 g/ha: 100%

## Cc1nc([C@H](C)NC(=O)c2cc(Cl)cc(OC(F)(F)F)c2)n(-c2cc(C(N)=O)ncn2)n1 [I-85]
[6]
  mortality at 100 g/ha: 100%
[1]
  efficacy (fleas dead or moribund): 100%
[7]
  mortality at 500 g/ha: 100%
[2]
  mortality at 100 g/ha: 100%
[8]
  pest or weed control at 32 µg/disc, 100 g/ha: 100%
[3]
  efficacy (larvae dead or moribund): 100%
[4]
  mortality at 500 g/ha: 90%
[5]
  pest or weed control at 5 µg/cm2, 500 g/ha: 100%

## Cc1nc([C@H](C)NC(=O)c2cc(OC(F)F)cc(OC(F)F)c2)n(-c2cc(C(N)=O)ncn2)n1 [I-98]
[6]
  mortality at 100 g/ha: 100%
[1]
  efficacy (fleas dead or moribund): 100%
[7]
  mortality at 500 g/ha: 100%
[2]
  mortality at 100 g/ha: 100%
[8]
  pest or weed control at 32 µg/disc, 100 g/ha: 100%
[3]
  efficacy (larvae dead or moribund): 100%
[5]
  pest or weed control at 5 µg/cm2, 500 g/ha: 100%

## C[C@H](NC(=O)c1cccc(OC(F)(F)F)c1)c1ncnn1-c1cc(C(N)=O)ncn1 [I-50]
[6]
  mortality at 100 g/ha: 90%
[1]
  efficacy (fleas dead or moribund): 100%
[2]
  mortality at 100 g/ha: 100%
[8]
  pest or weed control at 32 µg/disc, 100 g/ha: 100%
[3]
  efficacy (larvae dead or moribund): 100%
[4]
  mortality at 500 g/ha: 100%
[5]
  pest or weed control at 5 µg/cm2, 500 g/ha: 100%

## CCN(C)C(=O)c1cc(-n2ncnc2[C@H](C)NC(=O)c2cc(C(F)(F)F)cc(C(F)(F)F)c2)ncn1 [I-64]
[6]
  mortality at 100 g/ha: 90%
[1]
  efficacy (fleas dead or moribund): 100%
[7]
  mortality at 500 g/ha: 100%
[2]
  mortality at 100 g/ha: 100%
[8]
  pest or weed control at 32 µg/disc, 100 g/ha: 100%
[3]
  efficacy (larvae dead or moribund): 100%
[4]
  mortality at 500 g/ha: 100%
[5]
  pest or weed control at 5 µg/cm2, 500 g/ha: 100%

## Cc1nc([C@H](C)NC(=O)c2cc(Br)cc(OC(F)F)c2)n(-c2cc(C(N)=O)ncn2)n1 [I-89]
[6]
  mortality at 100 g/ha: 100%
[1]
  efficacy (fleas dead or moribund): 100%
[7]
  mortality at 500 g/ha: 100%
[2]
  mortality at 100 g/ha: 100%
[8]
  pest or weed control at 32 µg/disc, 100 g/ha: 100%
[3]
  efficacy (larvae dead or moribund): 100%
[5]
  pest or weed control at 5 µg/cm2, 500 g/ha: 100%
